Source: patent US7396837B2, “Antitumoral analogs of lamellarins” (Pharma Mar, S.A.U., priority 2002, dated 2008)

How the values were obtained:
human topoisomerase I [1] = target: T1, human topoisomerase I (Homo sapiens, UniProt P11387); test: Topoisomerase I DNA relaxation assay (supercoiled plasmid DNA); assay type: biochemical; conditions: for stimulation of DNA cleavage by topoisomerase I / inhibition of topoisomerase I (nicked DNA band) in DNA relaxation assay: supercoiled plasmid DNA, each compound tested at 1 μM, agarose gel with ethidium bromide
T1 sequence (P11387 1-765): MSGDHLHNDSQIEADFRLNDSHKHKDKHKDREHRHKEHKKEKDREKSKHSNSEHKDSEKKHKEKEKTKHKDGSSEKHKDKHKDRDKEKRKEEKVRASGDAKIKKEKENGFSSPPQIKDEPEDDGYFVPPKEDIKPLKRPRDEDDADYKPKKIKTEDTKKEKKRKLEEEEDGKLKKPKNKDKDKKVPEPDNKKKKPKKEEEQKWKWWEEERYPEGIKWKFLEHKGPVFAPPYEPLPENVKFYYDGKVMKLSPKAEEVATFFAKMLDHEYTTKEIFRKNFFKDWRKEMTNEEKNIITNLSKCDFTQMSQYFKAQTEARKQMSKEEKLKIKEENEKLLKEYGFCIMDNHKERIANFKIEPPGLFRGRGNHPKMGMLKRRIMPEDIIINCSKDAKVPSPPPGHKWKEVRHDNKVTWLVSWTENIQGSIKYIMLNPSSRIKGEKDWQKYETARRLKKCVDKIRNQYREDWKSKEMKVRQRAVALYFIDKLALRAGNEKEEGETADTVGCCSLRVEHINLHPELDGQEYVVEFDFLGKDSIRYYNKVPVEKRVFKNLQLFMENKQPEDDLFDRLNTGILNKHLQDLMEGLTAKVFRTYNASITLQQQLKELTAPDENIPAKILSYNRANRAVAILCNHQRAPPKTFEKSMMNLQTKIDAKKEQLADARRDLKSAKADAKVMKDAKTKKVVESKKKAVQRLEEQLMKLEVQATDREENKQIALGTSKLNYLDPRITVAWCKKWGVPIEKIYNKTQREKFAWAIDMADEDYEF
Experimental: (§1) Two assays, based on DNA relaxation and DNA cleavage (Bailly, C. DNA relaxation and cleavage assays to study topoisomerase I inhibitors. Methods Enzymol. 2001, 340, 610-623) were used evaluate the effects of the lamellarin analogs on the catalytic activity of human topoisomerase I.
In the first assay, a supercoiled plasmid DNA was relaxed with topoisomerase I in the absence or presence of the test compounds, each tested at 1 μM. DNA relaxation products were then resolved by gel electrophoresis on agarose gels containing ethidium bromide to stain the DNA.

human topoisomerase I [2] = target: T1, human topoisomerase I; test: Topoisomerase I cleavage of radiolabeled 117-bp DNA fragment; assay type: biochemical; conditions: 117-bp DNA restriction fragment 3' end-labeled, sequencing-type polyacrylamide gels
Excerpt: as §1
A second assay, based on the cleavage of a radiolabeled DNA substrate by topoisomerase I, was used to confirm that the cationic lamellarin derivatives do effectively function as topoisomerase I poisons. A 117-bp DNA restriction fragment uniquely end-labeled at the 3′ end was subjected to cleavage by topoisomerase I in the presence of the different compounds and the resulting DNA cleavage products were resolved on sequencing-type polyacrylamide gels. The advantage of this assay is to detect the cleavage sites and to locate their positions with nucleotide resolution, providing thus information on the site selectivity of cleavage.

fertilised sea urchin = fertilised sea urchin assay; cited from earlier work
P388 = P388 cell line in culture; cited from earlier work
A549 = A549 cell line in culture; cited from earlier work
lung cancer cell lines = conditions: acting as a Type IV microtubule poison; cited from earlier work

COc1cc(-c2c3c4cc(OC)c(OC(=O)[C@@H](N)Cc5ccccc5)cc4oc(=O)c3n3ccc4cc(OC(=O)[C@@H](N)Cc5ccccc5)c(OC)cc4c23)ccc1OC(=O)[C@@H](N)Cc1ccccc1 [Compound 25]
potency at inhibiting topoisomerase I relative to the other amino acid derivatives (human topoisomerase I [1]; DNA relaxation assay): significantly less potent than the other amino acid derivatives
stimulation of DNA cleavage by topoisomerase I / inhibition of topoisomerase I (nicked DNA band) in DNA relaxation assay (human topoisomerase I [1]): marked inhibition of topoisomerase I
topoisomerase I-mediated DNA cleavage sites / cleavage profile (human topoisomerase I [2]): Cleavage profiles identical to that of 3

COc1cc(-c2c3n(c4c(=O)oc5cc(O)c(OC)cc5c24)CCc2c-3cc(OC)c(OC)c2OC)ccc1O [Lamellarin C, lamellarin C]
inhibition of cell division (fertilised sea urchin): inhibition of cell division

COc1cc2c(cc1O)oc(=O)c1c2c(-c2ccc(OC)c(OC)c2)c2n1CCc1c-2cc(OC)c(OC)c1OC [Lamellarin I, lamellarin I]
cytotoxicity (P388): comparable cytoxicity
cytotoxicity (A549): comparable cytoxicity

COc1cc(-c2c3n(c4c(=O)oc5cc(O)c(OC)cc5c24)CCc2c-3cc(OC)c(OC)c2O)ccc1O [Lamellarin K, lamellarin K]
cytotoxicity (P388): comparable cytoxicity
cytotoxicity (A549): comparable cytoxicity

COc1ccc(-c2c3n(c4c(=O)oc5cc(O)c(OC)cc5c24)CCc2cc(O)c(OC)cc2-3)cc1O [Lamellarin L, lamellarin L]
cytotoxicity (P388): comparable cytoxicity
cytotoxicity (A549): comparable cytoxicity

COc1ccc(-c2c3c4cc(OC)c(O)cc4oc(=O)c3n3ccc4cc(O)c(OC)cc4c23)cc1O [Lamellarin N, lamellarin N]
activity in lung cancer cell lines (lung cancer cell lines): exhibit activity in lung cancer cell lines

CC[C@@]1(O)C(=O)OCc2c1cc1n(c2=O)Cc2cc3ccccc3nc2-1 [camptothecin, reference compound]
stimulation of DNA cleavage by topoisomerase I / inhibition of topoisomerase I (nicked DNA band) in DNA relaxation assay (human topoisomerase I [1]): strongly promotes DNA cleavage by topoisomerase I
topoisomerase I-mediated DNA cleavage sites / cleavage profile (human topoisomerase I [2]): T^↓G only
topoisomerase I-mediated DNA cleavage sites / cleavage profile (human topoisomerase I [2]; listed as CPT): three sites at nucleotide positions 26, 48 and 81
